Results from ChEMBL document CHEMBL1201862, “PubChem BioAssay data set” (2004).
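Tested at 5 concentrations; 48 h exposure; 96-well plates; endpoints linearly interpolated, else capped at highest concentration. GI50: concentration for 50% inhibition of growth.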 Activity calls are given as the source filed them. Rule as the data show it: active = GI50 up to about 1.1 µM and inactive = higher.

Experiments:
Assay in all cases: NCI-60 cell line screen, 48 h
UACC-62 = tested on: UACC-62
COLO 205 = tested on: COLO 205
HCC 2998 = tested on: HCC 2998
SK-MEL-5 = tested on: SK-MEL-5
SNB-75 = tested on: SNB-75
IGROV-1 = tested on: IGROV-1
TK-10 = tested on: TK-10
HL-60 = tested on: HL-60
SN12C = tested on: SN12C
Malme-3M = tested on: Malme-3M
HCT-15 = tested on: HCT-15
786-0 = tested on: 786-0
LOX IMVI = tested on: LOX IMVI
NCI-H226 = tested on: NCI-H226
SF-295 = tested on: SF-295
HT-29 = tested on: HT-29
SK-OV-3 = tested on: SK-OV-3
U-251 = tested on: U-251

CCCCCCCCCCCC(=O)C1=C(O)CCC(O)C1=O (configuration not stated)
GI50 (UACC-62): 10.8 µM (inactive) | GI50 (COLO 205): 15.1 µM (inactive) | GI50 (HCC 2998): 22 µM (inactive) | GI50 (SK-MEL-5): 10 µM (inactive) | GI50 (SNB-75): 21.6 µM (inactive) | GI50 (IGROV-1): 19.9 µM (inactive) | GI50 (TK-10): 18.4 µM (inactive) | GI50 (HL-60): 13.5 µM (inactive) | GI50 (SN12C): 21.8 µM (inactive) | GI50 (Malme-3M): 17 µM (inactive) | GI50 (HCT-15): 8.89 µM | GI50 (786-0): 19.4 µM (inactive) | GI50 (LOX IMVI): 11.3 µM (inactive) | GI50 (NCI-H226): 18 µM (inactive) | GI50 (SF-295): 8.17 µM (inactive) | GI50 (HT-29): 15.6 µM (inactive) | GI50 (SK-OV-3): 26.8 µM (inactive) | GI50 (U-251): 14.6 µM (inactive)

CN(C)CCNC(=O)c1cccc2c1nc(-c1cccnc1)c1ccccc12
GI50 (UACC-62): 3.57 µM (inactive) | GI50 (COLO 205): 4.47 µM (inactive) | GI50 (HCC 2998): 6.9 µM (inactive) | GI50 (SK-MEL-5): 3.37 µM (inactive) | GI50 (SNB-75): 9.35 µM (inactive) | GI50 (IGROV-1): 1.73 µM (inactive) | GI50 (TK-10): 2.25 µM (inactive) | GI50 (HL-60): 1.97 µM (inactive) | GI50 (SN12C): 3.3 µM (inactive) | GI50 (HCT-15): 3.74 µM | GI50 (786-0): 5.04 µM (inactive) | GI50 (LOX IMVI): 2.15 µM (inactive) | GI50 (NCI-H226): 2.3 µM (inactive) | GI50 (SF-295): 4.72 µM (inactive) | GI50 (HT-29): 3.76 µM (inactive) | GI50 (SK-OV-3): 10 µM (inactive) | GI50 (U-251): 3.75 µM (inactive)

Cn1c2ccccc2c2ccc3c(c21)C(=O)C(c1ccccc1)=CC3=O
GI50 (COLO 205): 31.1 µM (inactive) | GI50 (HCC 2998): 24.5 µM (inactive) | GI50 (SK-MEL-5): 22.8 µM (inactive) | GI50 (SNB-75): 9.31 µM (inactive) | GI50 (IGROV-1): 13.4 µM (inactive) | GI50 (TK-10): 43.8 µM (inactive) | GI50 (HL-60): 14.4 µM (inactive) | GI50 (SN12C): 17.3 µM (inactive) | GI50 (Malme-3M): 21.9 µM (inactive) | GI50 (HCT-15): 7.03 µM | GI50 (786-0): 17.1 µM (inactive) | GI50 (NCI-H226): 11.7 µM (inactive) | GI50 (SF-295): 61.4 µM (inactive) | GI50 (HT-29): 45.4 µM (inactive) | GI50 (SK-OV-3): 81.3 µM (inactive) | GI50 (U-251): 36.8 µM (inactive)

CS(=O)(=O)N/N=C/CN1C(=O)c2ccccc2C1=O
GI50 (UACC-62): > 100 µM (inactive) | GI50 (COLO 205): > 100 µM (inactive) | GI50 (HCC 2998): > 100 µM (inactive) | GI50 (SK-MEL-5): > 100 µM (inactive) | GI50 (SNB-75): > 100 µM (inactive) | GI50 (IGROV-1): > 100 µM (inactive) | GI50 (TK-10): > 100 µM (inactive) | GI50 (HL-60): > 100 µM (inactive) | GI50 (SN12C): > 100 µM (inactive) | GI50 (Malme-3M): > 100 µM (inactive) | GI50 (HCT-15): > 100 µM | GI50 (786-0): > 100 µM (inactive) | GI50 (NCI-H226): > 100 µM (inactive) | GI50 (SF-295): > 100 µM (inactive) | GI50 (HT-29): > 100 µM (inactive) | GI50 (SK-OV-3): > 100 µM (inactive) | GI50 (U-251): > 100 µM (inactive)

CC1C(/C=C/c2ccoc2)ON2CCCC12 (configuration not stated)
GI50 (COLO 205): > 100 µM (inactive) | GI50 (HCC 2998): > 100 µM (inactive) | GI50 (SNB-75): > 100 µM (inactive) | GI50 (TK-10): > 100 µM (inactive) | GI50 (HL-60): > 100 µM (inactive) | GI50 (SN12C): > 100 µM (inactive) | GI50 (Malme-3M): 54.2 µM (inactive) | GI50 (786-0): > 100 µM (inactive) | GI50 (LOX IMVI): > 100 µM (inactive) | GI50 (NCI-H226): > 100 µM (inactive) | GI50 (SF-295): > 100 µM (inactive) | GI50 (HT-29): > 100 µM (inactive) | GI50 (U-251): > 100 µM (inactive)

Cc1ccc(S(=O)(=O)N/N=C(/c2nc3ccc([N+](=O)[O-])cc3nc2O)C(O)c2ccc(C(O)/C(=N\NS(=O)(=O)c3ccc(C)cc3)c3nc4ccc([N+](=O)[O-])cc4nc3O)cc2)cc1 (configuration not stated)
GI50 (UACC-62): 68.4 µM (inactive) | GI50 (COLO 205): 41.4 µM (inactive) | GI50 (HCC 2998): 28 µM (inactive) | GI50 (SK-MEL-5): 28.1 µM (inactive) | GI50 (SNB-75): > 100 µM (inactive) | GI50 (IGROV-1): > 100 µM (inactive) | GI50 (TK-10): > 100 µM (inactive) | GI50 (HL-60): 7.82 µM (inactive) | GI50 (Malme-3M): > 100 µM (inactive) | GI50 (786-0): > 100 µM (inactive) | GI50 (LOX IMVI): 20.3 µM (inactive) | GI50 (HT-29): 31 µM (inactive) | GI50 (SK-OV-3): > 100 µM (inactive) | GI50 (U-251): 67.6 µM (inactive)

COC(=O)C#CCC1CCCC1C1SCCS1 (configuration not stated)
GI50 (UACC-62): 35.8 µM (inactive) | GI50 (COLO 205): > 100 µM (inactive) | GI50 (HCC 2998): > 100 µM (inactive) | GI50 (SK-MEL-5): > 100 µM (inactive) | GI50 (SNB-75): > 100 µM (inactive) | GI50 (IGROV-1): > 100 µM (inactive) | GI50 (TK-10): > 100 µM (inactive) | GI50 (HL-60): 38.1 µM (inactive) | GI50 (SN12C): 37.5 µM (inactive) | GI50 (Malme-3M): > 100 µM (inactive) | GI50 (786-0): > 100 µM (inactive) | GI50 (LOX IMVI): 50.2 µM (inactive) | GI50 (NCI-H226): > 100 µM (inactive) | GI50 (SF-295): 90.6 µM (inactive) | GI50 (HT-29): > 100 µM (inactive) | GI50 (SK-OV-3): > 100 µM (inactive) | GI50 (U-251): 59.6 µM (inactive)

CC(=O)C1C(=O)C(=O)N(c2ccc(Cl)cc2C)C1=O (configuration not stated)
GI50 (UACC-62): > 100 µM (inactive) | GI50 (COLO 205): > 100 µM (inactive) | GI50 (HCC 2998): > 100 µM (inactive) | GI50 (SK-MEL-5): > 100 µM (inactive) | GI50 (IGROV-1): > 100 µM (inactive) | GI50 (TK-10): > 100 µM (inactive) | GI50 (HL-60): > 100 µM (inactive) | GI50 (SN12C): > 100 µM (inactive) | GI50 (Malme-3M): > 100 µM (inactive) | GI50 (HCT-15): > 100 µM | GI50 (786-0): > 100 µM (inactive) | GI50 (SF-295): > 100 µM (inactive) | GI50 (HT-29): > 100 µM (inactive) | GI50 (U-251): > 100 µM (inactive)

COc1cc(C2C(C(=O)Nc3ccccc3C)=C(C)NC(C)=C2C(=O)Nc2ccccc2C)ccc1O
GI50 (UACC-62): > 100 µM (inactive) | GI50 (COLO 205): > 100 µM (inactive) | GI50 (HCC 2998): > 100 µM (inactive) | GI50 (SK-MEL-5): > 100 µM (inactive) | GI50 (SNB-75): 56.6 µM (inactive) | GI50 (IGROV-1): > 100 µM (inactive) | GI50 (TK-10): > 100 µM (inactive) | GI50 (HL-60): 60.4 µM (inactive) | GI50 (SN12C): > 100 µM (inactive) | GI50 (Malme-3M): > 100 µM (inactive) | GI50 (786-0): > 100 µM (inactive) | GI50 (NCI-H226): > 100 µM (inactive) | GI50 (SF-295): > 100 µM (inactive) | GI50 (HT-29): > 100 µM (inactive) | GI50 (SK-OV-3): > 100 µM (inactive) | GI50 (U-251): > 100 µM (inactive)
